Among the data in patent publication US12187716B2, “TYK2 kinase inhibitors” (SAREUM LIMITED, priority 2018, dated 2025) are IC50 and inhibition values, retold here.

For one test, the target named is JAK3 (Homo sapiens, UniProt P52333). Description: JAK3 kinase inhibition assay (33P-ATP filter binding, Reaction Biology).
For a further test, the target named is JAK1 (Homo sapiens, UniProt P23458). Description: JAK1 kinase inhibition assay (33P-ATP filter binding, Reaction Biology).
For a further test, the target named is TYK2 (Homo sapiens, UniProt P29597). Description: TYK2 kinase inhibition assay (33P-ATP filter binding, Reaction Biology).
The next test deals with pSTAT3 in HT29 cells. Description: pSTAT3 inhibition in response to IL-22 stimulation in serum starved HT29 cells. It counts as cell-based. The method, then:
HT29 cells were serum starved overnight before the four test compounds were diluted to generate a 9-point semi-log dose dilution with a top concentration of 10 μM, plus vehicle control. HT29 cells were incubated with the test compounds for 20 min at 37° C. HT29 cells were incubated for a further 15 min with 10 ng/ml human IL-22 before cells were fixed with 4% PFA for 10 min, and 90% methanol for 30 min before being labelled with a phospho-STAT3Y705 antibody (CST #9145). Cells were rinsed three times using 0.5% BSA/PBS solution before being incubated with Alexa-488 anti-rabbit secondary antibodies.
Mean fluorescence intensity of phospho-STAT3 in single cells was analysed by flow cytometry using an Intellicyt iQue instrument and FlowJo software. The IC50 was determined using a four-parameter analysis following removal of background signal and normalisation to the DMSO control.

Sequence of TYK2 (P29597 833-1187): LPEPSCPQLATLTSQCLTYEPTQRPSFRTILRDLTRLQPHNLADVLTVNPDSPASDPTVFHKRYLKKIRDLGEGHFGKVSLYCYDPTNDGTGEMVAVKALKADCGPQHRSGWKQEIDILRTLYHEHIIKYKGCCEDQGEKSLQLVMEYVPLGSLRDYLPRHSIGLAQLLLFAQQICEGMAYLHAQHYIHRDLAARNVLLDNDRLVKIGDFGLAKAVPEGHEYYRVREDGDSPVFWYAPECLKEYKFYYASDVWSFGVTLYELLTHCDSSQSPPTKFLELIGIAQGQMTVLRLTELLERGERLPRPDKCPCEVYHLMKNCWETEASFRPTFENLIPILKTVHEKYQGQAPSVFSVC
Sequence of JAK1 (P23458 866-1154): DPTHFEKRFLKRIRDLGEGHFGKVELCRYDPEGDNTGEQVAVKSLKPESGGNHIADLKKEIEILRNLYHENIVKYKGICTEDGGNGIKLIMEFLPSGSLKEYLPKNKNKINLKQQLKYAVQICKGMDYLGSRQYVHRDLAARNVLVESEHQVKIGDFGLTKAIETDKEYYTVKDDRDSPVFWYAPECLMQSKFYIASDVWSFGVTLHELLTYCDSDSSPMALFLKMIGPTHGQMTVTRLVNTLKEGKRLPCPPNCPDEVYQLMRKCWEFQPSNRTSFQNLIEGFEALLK
Sequence of JAK3 (P52333 781-1124): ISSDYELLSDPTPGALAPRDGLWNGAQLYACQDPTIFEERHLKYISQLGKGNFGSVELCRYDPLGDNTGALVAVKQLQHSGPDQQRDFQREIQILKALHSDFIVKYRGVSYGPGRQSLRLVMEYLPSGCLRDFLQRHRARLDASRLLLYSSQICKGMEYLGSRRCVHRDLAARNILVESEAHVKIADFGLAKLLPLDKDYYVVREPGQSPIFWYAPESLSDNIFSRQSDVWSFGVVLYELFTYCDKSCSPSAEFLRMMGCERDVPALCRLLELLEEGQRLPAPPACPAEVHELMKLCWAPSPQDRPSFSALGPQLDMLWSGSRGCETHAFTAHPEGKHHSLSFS

In general, IC50 refers to the concentration that gives 50% inhibition. High values mean a need for much substance, low ones inhibition by little substance. The term inhibition denotes the relative decrease from the control value, in per cent. For `NC(=O)c1nc(-c2c(F)cccc2Cl)oc1Nc1ccc(C(=O)N2CCOCC2)cc1` [A, 2-(2-chloro-6-fluoro-phenyl)-5-[4-(morpholine-4-carbonyl)-phenylamino]-oxazole-4-carboxylic acid amide, reference compound], the IC50 on JAK3 stood at 290 nM; on JAK1 it was 49 nM; on TYK2, 10 nM; in the test with pSTAT3 in HT29 cells (Homo sapiens, HT-29, HT29 cells, 10 ng/ml human IL-22), 170 nM. The inhibition at 10 µM in the test on pSTAT3 in HT29 cells (HT-29, HT29 cells, 10 ng/ml human IL-22, 10 μM compound) was 96.9%.
